Results published in paper PMC6770517, “Insight into the Antifungal Mechanism of Action of Human RNase N-terminus Derived Peptides” (International Journal of Molecular Sciences, 2019).
Where no end group is shown, it is not given here.

Legend:
in vitro = format: cell-based; settings: human
Description: The peptide cytoxicity was evaluated using the human monocytic THP1 cell line. The assay was performed in 96-well cell culture flat-bottom plates (Costar; Appleton Woods) in triplicate. THP-1 cultures were induced to macrophages by adding 2 ng/mL of colony-stimulating factor (R&D Systems, Germany). Peptides were serially diluted from 50 to 0.1 µM and added to 5 × 10^5 cells/mL. After 48 h of incubation, the cells were washed twice with 1× PBS, and fresh RPMI-1640 complete medium was added. Plates were then treated with 30 μL of a freshly prepared 0.01% resazurin solution and incubated overnight at 37 °C. The following day the change in color was observed and the fluorescence intensity was measured (λex560 nm, λem590 nm). The 50% growth inhibitory concentration (GIC50) was determined based on the resazurin fluorescence signal.

[1] = system: C. albicans planktonic cells; format: cell-based, Candida albicans (ATCC 90028); settings: 4 h
Description: Cell viability of C. albicans was assayed using the BacTiter-Glo™ Microbial Cell Viability kit (Promega), which measures the number of viable cells, by ATP quantification. ATP, as an indicator of metabolically active cells, is indirectly measured by a coupled luminescence detection assay. The luminescent signal is proportional to the amount of ATP required for the conversion of luciferin into oxyluciferin in the presence of luciferase. An overnight culture of C. albicans was used to inoculate fresh Sabouraud liquid culture, and logarithmic phase culture was grown to an OD592 of 0.2. RNase derived N-terminal peptides were added to 0.1 mL of cell culture at a final concentration from 0.025 to 20 μM. The C. albicans viability was followed after 4 h of incubation at 30 °C. 50 µL of incubation culture were mixed with 50 µL of BacTiter-Glo^TM reagent in a microtiter plate following the manufacturer instructions and incubated at room temperature for 10 min. Luminiscence was read on a Victor3 plate reader (PerkinElmer, Waltham, MA, USA) with a 1-s integration time. IC50 values were calculated by fitting the data to a dose-response curve.

C. albicans cells = assay: Minimal agglutination activity (MAC); format: cell-based, Candida albicans (ATCC 90028); settings: protein tested up to 20 μM
Description: C. albicans cells were grown at 30 °C to an OD592 of 1.0, diluted 10 times, centrifuged at 5000× g for 2 min, and resuspended in 1× PBS. An aliquot of 100 μL of the cellular suspension was treated with increasing peptide concentrations (from 0.01 to 20 μM) and incubated at 30 °C for 1 h. The aggregation behavior was observed by visual inspection, and the agglutinating activity is expressed as the minimum agglutinating concentration of the sample tested, as previously described. Images were taken using a 50× stereoscope microscope.

Molecule: RPRGMTSSQWFRIQHMQPSPQASNSAMRNINRHTRRSRDLNTFLH-NH2 [RN7R]
- IC50 at 48 h (in vitro): > 50 µM
- IC50 [1]: 1.62 ± 0.32 µM

Molecule: KPPQFTKAQWFAIQHISLNPPKSTIAMKAINNYKWKSKNQNTFLK-NH2 [RN3K]
- IC50 at 48 h (in vitro): > 50 µM
- IC50 [1]: 2.08 ± 0.27 µM

Molecule: KPKGMTSSQWFKIQHMQPSPQASNSAMKNINKHTKRSKDLNTFLH-NH2 [RN7]
- IC50 at 48 h (in vitro): > 50 µM
- IC50 [1]: 0.45 ± 0.1 µM

Molecule: RPPQFTRAQWFAIQHISLNPPRSTIAMRAINNYRWRSKNQNTFLR-NH2 [RN3]
- IC50 at 48 h (in vitro): > 50 µM
- IC50 [1]: 0.22 ± 0.05 µM

Molecule: WPKRLTKAHWFEIQHIQPSPLQSNRAMSGINNYTQHSKHQNTFLH-NH2 [RN6]
- IC50 at 48 h (in vitro): > 50 µM
- IC50 [1]: 1.8 ± 0.2 µM

Molecule: KPPQFTWAQWFETQHINMTSQQSTNAMQVINNYQRRSKNQNTFLL-NH2 [RN2]
- IC50 at 48 h (in vitro): > 50 µM
- IC50 [1]: > 20 µM

Molecule: KPKDMTSSQWFKTQHVQPSPQASNSAMSIINKYTERSKDLNTFLH-NH2 [RN8]
- IC50 at 48 h (in vitro): > 50 µM
- IC50 [1]: > 10 µM

B1: hRNase7: human ribonuclease 7 of the RNaseA superfamily, parental protein of RN7 (protein, UniProt Q9H1E1 29-156, looked up)
Ribonuclease 7: KPKGMTSSQWFKIQHMQPSPQACNSAMKNINKHTKRCKDLNTFLHEPFSSVAATCQTPKIACKNGDKNCHQSHGAVSLTMCKLTSGKHPNCRYKEKRQNKSYVVACKPPQKKDSQQFHLVPVHLDRVL
- agglutination of C. albicans by the parental hRNase (C. albicans cells): not
